Source: patent US4837316A, “Alkylamide derivatives with H2 -receptor antagonistic and cytoprotective action” (Fujirebio Kabushiki Kaisha, priority 1985, dated 1989)

How the values were obtained:
Histamine H2-receptor = target: T1, Histamine H2-receptor (Cavia porcellus, UniProt P47747); experiment: Histamine H2-receptor antagonistic action (isolated right atrium, histamine response); conditions: isolated guinea-pig right atrium, 32° C., tested compound 1×10^-6 M or 1×10^-7 M, Van Rossum method; for Kb: read-out: pA2 (converted)
T1 construct: the right atrium was isolated rapidly; from tissue; host or cells: guinea pig right atrium (isolated organ)
T1 sequence (P47747 whole entry): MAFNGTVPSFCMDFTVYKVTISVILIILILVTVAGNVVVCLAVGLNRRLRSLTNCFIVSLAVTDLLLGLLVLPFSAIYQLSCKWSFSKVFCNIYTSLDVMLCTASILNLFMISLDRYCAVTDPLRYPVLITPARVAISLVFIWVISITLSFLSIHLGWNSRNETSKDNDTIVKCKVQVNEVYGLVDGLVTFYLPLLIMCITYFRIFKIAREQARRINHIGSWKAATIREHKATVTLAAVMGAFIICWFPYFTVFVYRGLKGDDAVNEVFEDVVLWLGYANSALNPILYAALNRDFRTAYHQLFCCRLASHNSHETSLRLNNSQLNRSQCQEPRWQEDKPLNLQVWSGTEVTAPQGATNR
Protocol: Histamine H2 -receptor antagonistic actions of the exemplified compounds were measured. Male Guinea-Pig weighing 300 to 350 g was killed by a blow on the head. After thoracotomy, the right atrium was isolated rapidly, and the surrounding tissues of the right atrium was carefully dissected. The preparation was mounted isometrically in 30 ml organ bath containing an oxygenated (O2 95%+CO2 5%) Krebs-Henselite solution at 32° C. 1 g of resting tension was loaded through the experiment. Contraction of the right atrium to histamine was measured with a force-displacement transducer, and heart rate was measured with a heart rate meter. After the control dose-response curve in the presence of tested compound (1×10^-6 M or 1×10^-7 M) was determined.
The pA2 value of each compound was determined from these two curves by the method of J. M. Van Rossum (Arch. Int. Pharmacodyn. Ther 143-299 (1963)).

gastric mucosal leasion = experiment: Cytoprotective action (gastric mucosal lesion by necrotizing agent 0.4N HCl+50% EtOH); assay type: in vivo, Male Donryu rats; conditions: Rattus norvegicus, po; 10 mg/kg P.O., 30 minutes before 5 ml/kg 0.4N HCl+50% EtOH; stomach taken 1 hour after; read-out: Repression % (inhibition % of total area of gastric mucosal leasion vs control)
Protocol: Cytoprotective actions of the exemplified compounds were examined.
Male Donryu rats weighing 150-250 g were used after fasting for 24 hours. 10 mg/kg P.O. of the test compound was administrated, and 5 ml/kg of a necrotizing agent (0.4N HCl+50% EtOH) was orally administrated after 30 minutes. After 1 hour from the administration of the necrotizing agent, its stomach was dissected out, and fixed with formalin. Total area of gastric mucosal leasion was measured, and compared with a control group to determine inhibition %.

Row | Kb (Histamine H2-receptor) | pA2 (Histamine H2-receptor) | SMILES | inhibition in vivo at 10 mg/kg (gastric mucosal leasion)
1 | 50.1 nM | – | CC1CCCN(Cc2cccc(OCCCNC(=O)CS(=O)(=O)Cc3ccoc3)c2)C1 (centres unmarked) [Compound 73] | 88%
2 | 631 nM | – | CC1CCCCN1Cc1cccc(OCCCNC(=O)CS(=O)(=O)Cc2ccoc2)c1 (centres unmarked) [Compound 74] | 50%
3 | 20 nM | – | COC(=O)c1ccc(CSCC(=O)NCCCOc2cccc(CN3CCCCC3)c2)o1 [Compound 75, N-[3-{3-(piperidinomethyl)phenoxy}propyl]-2-{(5-methoxycarbonyl)furfurylthio}acetamide] | –
4 | 7.94 nM | – | COc1ccc(CSCC(=O)NCCCOc2cccc(CN3CCCCC3)c2)nc1 [Compound 79] | 53%
5 | 20 nM | – | O=C(CSCc1cccc(Cl)n1)NCCCOc1cccc(CN2CCCCC2)c1 [Compound 82, N-[3-{3-(piperidinomethyl)phenoxy}propyl]-2-(6-chloro-2-pyridylmethylthio)acetamide] | 61%
6 | 25.1 nM | – | Cc1cccc(CSCC(=O)NCCCOc2cccc(CN3CCCCC3)c2)n1 [Compound 86] | –
7 | 316 nM | – | O=C(CSCc1ccco1)NCCSCc1ccc(CN2CCCCC2)s1 [Compound 94] | –
8 | 100 nM | – | O=C(CSCc1ccco1)NCCCOc1cc(CN2CCCCC2)ccn1 [Compound 100] | 35%
9 | 200 nM | – | NC(N)=Nc1nc(CSCCNC(=O)CSCc2ccoc2)cs1 [Compound 104] | 50.6%
10 | 79.4 nM | – | NC(N)=Nc1nc(CSCCNC(=O)CSCc2ccccc2)cs1 [Compound 105] | –
11 | 200 nM | – | NC(N)=Nc1nc(CSCCNC(=O)CSCc2cccs2)cs1 [Compound 106] | –
12 | 794 nM | – | NC(N)=Nc1nc(CSCCNC(=O)CSCC2CCCCC2)cs1 [Compound 107] | 52.3%
13 | – | 7.6 | NC(N)=Nc1nc(CSCCNC(=O)CSCc2ccccn2)cs1 [Compound 109] | –
14 | 79.4 nM | – | NC(N)=Nc1nc(CSCCNC(=O)CSCc2ccco2)cs1 [Compound 110] | 58%
15 | 15.8 nM | – | Cc1ccc(CSCC(=O)NCCCOc2cccc(CN3CCCCC3)c2)s1 [Compound 112, N-[3-{3-(piperidinomethyl)phenoxy}propyl]-2-{(5methyl-2-thienyl)methylthio}acetamide] | –
16 | 25.1 nM | – | O=C(CSCc1ccc(Cl)s1)NCCCOc1cccc(CN2CCCCC2)c1 [Compound 113, N-[3-{(piperidinomethyl)phenoxy}propyl]-2-{(5-chloro-2-thienyl)methylthio}acetamide] | –
17 | 39.8 nM | – | O=C(CSCc1ccsc1Cl)NCCCOc1cccc(CN2CCCCC2)c1 [Compound 114, N-[3-{3-(piperidinomethyl)phenoxy}propyl]-2-{(2-chloo-3-thienyl)methylthio}acetamide] | –
18 | 31.6 nM | – | CC(=O)Nc1ccsc1CSCC(=O)NCCCOc1cccc(CN2CCCCC2)c1 [Compound 116, N-[3-{3-(piperidinomethyl)phenoxy}propyl]-2-{(3-acetamide-2-thienyl)methylthio}acetamide] | –

Continued, molecule first:

Row | SMILES | Kb (Histamine H2-receptor) | pA2 (Histamine H2-receptor) | inhibition in vivo at 10 mg/kg (gastric mucosal leasion)
19 | O=C(CSCc1ccccc1)NCCCOc1cccc(CN2CCCCC2)c1 [Compound 1, N-[3-{3-(piperidinomethyl)phenoxy}propyl]-2-(benzylthio)acetamide] | 31.6 nM | – | 59%
20 | COc1ccc(CSCC(=O)NCCCOc2cccc(CN3CCCCC3)c2)cc1 [Compound 12, N-[3-{3-(piperidinomethyl)phenoxy}propyl]-2-(4-methoxybenzylthio)acetamide] | 50.1 nM | – | –
21 | O=C(CSCCCc1ccccc1)NCCCOc1cccc(CN2CCCCC2)c1 [Compound 14, N-[3-{3-(piperidinomethyl)phenoxy}propyl]-2-(3-phenylpropyl-1-thio)acetamide] | – | – | 55%
22 | O=C(CSCC1CCCCC1)NCCCOc1cccc(CN2CCCCC2)c1 [Compound 16, N-[3-{3-(piperidinomethyl)phenoxy}propyl]-2-(cyclohexylmethylthio)acetamide] | 12.6 nM | – | –
23 | O=C(CSCc1ccco1)NCCCOc1cccc(CN2CCCCC2)c1 [Compound 19, N-[3-{3-(piperidinomethyl)phenoxy}propyl]-2-(furfurylthio)acetamide] | 50.1 nM | – | 63%
24 | O=C(CSCc1cccs1)NCCCOc1cccc(CN2CCCCC2)c1 [Compound 20] | – | – | 45%
25 | O=C(CSCc1ccc2ccccc2c1)NCCCOc1cccc(CN2CCCCC2)c1 [Compound 21, N-[3-{3-(piperidinomethyl)phenoxy}propyl]-2-(2-naphthylmethylthio)acetamide] | – | – | 60%
26 | O=C(CCCSCc1ccccc1)NCCCOc1cccc(CN2CCCCC2)c1 [Compound 30] | – | – | 62%
27 | O=C(CCCCCSCc1ccccc1)NCCCOc1cccc(CN2CCCCC2)c1 [Compound 35, N-[3-{3-(piperidinomethyl)phenoxy}propyl]-6-(benzylthio)hexylamide] | – | – | 61%
28 | O=C(C[S+]([O-])Cc1ccccc1)NCCCOc1cccc(CN2CCCCC2)c1 (centres unmarked) [Compound 44, N-[3-{3-(piperidinomehtyl)phenoxy}propyl]-2-(benzylsulfinyl)acetamide] | 251 nM | – | 73%
29 | O=C(CS(=O)(=O)Cc1ccccc1)NCCCOc1cccc(CN2CCCCC2)c1 [Compound 45, N-[3-{3-(piperidinomethyl)phenoxy}propyl]-2-(benzylsulfonyl)acetamide] | – | – | 72%
30 | O=C(C[S+]([O-])Cc1ccco1)NCCCOc1cccc(CN2CCCCC2)c1 (centres unmarked) [Compound 46, N-[3-[3-(piperidinomethyl)phenoxy}propyl]-2-(furfurylsulfinyl)acetamide] | – | – | 72%
31 | O=C(CS(=O)(=O)Cc1ccco1)NCCCOc1cccc(CN2CCCCC2)c1 [Compound 47, N-[3-[3-(piperidinomethyl)phenoxy]propyl]-2-(furfurylsulfonyl)acetamide] | – | – | 85%
32 | O=C(CSCc1ccc(C(=O)O)cc1)NCCCOc1cccc(CN2CCCCC2)c1 [Compound 48, N-[3-{3-(piperidinomethyl)phenoxy}propyl]-2-(4-carboxylbenzylthio)acetamide] | 31.6 nM | – | –
33 | O=C(CSCc1ccoc1)NCCCOc1cccc(CN2CCCCC2)c1 [Compound 57, N-[3-{3-(piperidinomethyl)phenoxy}propyl]-2-(3-furylmethylthio)acetamide] | 31.6 nM | – | 69%
34 | CC(SCC(=O)NCCCOc1cccc(CN2CCCCC2)c1)c1ccco1 (centres unmarked) [Compound 58, N-[3-{3-(piperidinomethyl)phenoxy}propyl]-2-{1-(2-furyl)ethylthio}acetamide] | 31.6 nM | – | –
35 | Cc1ccc(CSCC(=O)NCCCOc2cccc(CN3CCCCC3)c2)o1 [Compound 69, N-[3-{3-(piperidinomethyl)phenoxy}propyl]-2-(5-methyl-furfurylthio)acetamid] | 3.98 nM | – | 59%
36 | CC1CCN(Cc2cccc(OCCCNC(=O)CS(=O)(=O)Cc3ccoc3)c2)CC1 [Compound 72] | 100 nM | – | 60%
37 | O=C(CSCc1ccco1)NCCSCc1ccc(CN2CCCCC2)o1 [Compound 89] | – | – | 46%
38 | O=C(CSCc1ccco1)NCCSCc1ccc(C=CCN2CCCC2)s1 [Compound 93] | – | – | 43%
39 | NC(N)=Nc1nc(CSCCNC(=O)CSCc2ccc3ccccc3c2)cs1 [Compound 108] | – | – | 51.2%
